Consider 1 molecule from patent US20100143899A1, “METHODS AND PRODUCTS FOR DIAGNOSING CANCER” (University of Vermont and State Agricultural College, priority 2005, published 2010).

Entries after “also recorded” stand apart in the source; their conditions may differ.

Experiment [1] has as its system SYK mRNA in melanoma cell lines. Description: Quantitative RT-PCR of SYK expression after 5AzadC treatment. As to conditions: in a subset (4/8) of cell lines with SYK methylation. The format is cell-based, human. How it is done:
(§1) 5AzadC treatment and microarray analysis. Cells were grown to 50% confluence in 100 mm culture plates and treated with 5 μM 5AzadC (Sigma; St. Louis, Mo.) dissolved in growth media. Fresh 5AzadC media was added every 24 hours until the end of the assay (96 hours). RNA and DNA were isolated from a batch of 5AzadC treated cells every 24 hours starting with 0 hour controls. RNA was isolated following 0 hr and 48 hr 5AzadC treatment of six melanoma cell lines (MelJuSo, UACC 903, c8161, Neo-6 c8161, WM1205 and WM35) and used for the re-expression microarray analysis. Total RNA was isolated using the RNeasy kit (Qiagen; Valencia, Calif.) according to manufacturer's instructions. […] Probe set signal calls with p values greater than 0.01 were not further evaluated. […]
(§2) Bisulfite sequencing and quantitative PCR. […] Particular CpG sites were scored as positive if the C:T peak ratio exceeded 1:3 (at least 25% methylation). Real time quantitative PCR was performed for validation of microarray expression data of selected candidate genes by using 2.5 μl of 100 fold diluted cDNA template and 0.2 μM gene specific primers in a 25 μl PCR reaction using JumpStart SYBR green kit (Sigma) according to manufacturer's instructions in an ABI 7700. The reactions were performed in duplicate, CT values obtained were normalized to GAPDH levels and quantification was performed using the comparative CT method.

The subject of experiment [2] is HOXB13 mRNA in melanoma cell lines. Description: Quantitative RT-PCR of HOXB13 expression after 5AzadC treatment. The experiment is classed as cell-based, human. As to conditions: in 2 out of 3 cell lines with promoter region methylation. How it is done: as §1, §2
For experiment [3], the system named is six human melanoma cell lines (MelJuSo, UACC 903, c8161, Neo-6 c8161, WM1205 and WM35). Description: Re-expression microarray analysis after 5AzadC treatment. The format is cell-based. As to conditions: 5 μM 5AzadC, 48 hours, relative to untreated cells; in at least one of the six melanoma cell lines; HG U133A microarray. How it is done: as §1, with “instructions. Preparation of double stranded cDNA and in-vitro transcription (IVT) was as per manufacturer's recommendations. Biotinylated cRNA obtained from IVT were fragmented and hybridized on Human Genome U133A array as per manufacturer's recommendations (Affymetrix; Santa Clara, Calif.).” for “instructions.”
In order to determine DNA methylation-related expression changes, six human melanoma cell lines were treated with 5AzadC and compared for expression changes at 48 hours post-treatment relative to untreated melanoma cell lines. […] No DNA methylation was detected in primary human melanocytes at any of the loci. […]

In experiment [4] the test system is methylated candidate genes in melanoma cell lines. Description: Quantitative RT-PCR of candidate genes after 5AzadC treatment. The experiment is classed as cell-based, human. Conditions: expression relative to melanocytes. How it is done:
as §1, §2

Experiment [5] relates to QPCT promoter region in MelJuSo melanoma cell line. Description: Bisulfite sequencing of promoter region after 5AzadC treatment. The experiment is classed as cell-based, human. Conditions: 48 h, bisulfite sequencing (FIG. 5). How it is done:
FIG. 5A represents the original sequence for comparison (SEQ ID NO:58).
Bisulfite sequencing and quantitative PCR. DNA was isolated from cells and tissues using standard phenol-chloroform extraction. Bisulfite modification was performed as previously described (24) on DNA from melanocytes, melanoma cell lines prior to and after 48 hr treatment with 5AzadC and DNA from melanoma tissues. PCR reactions were carried out using 50 ng of bisulfite modified DNA in a 30 μl volume with a 0.2 μM primer concentration (primer sequences are provided in the Table 2 with the amplified regions of selected genes provided in Table 3). PCR products were purified using the Qiaquick Gel Extraction kit (Qiagen) and directly sequenced on the ABI 3100-Avant automated DNA sequencer. Particular CpG sites were scored as positive if the C:T peak ratio exceeded 1:3 (at least 25% methylation). Real time quantitative PCR was performed for validation of microarray expression data of selected candidate genes by using 2.5 μl of 100 fold diluted cDNA template and 0.2 μM gene specific primers in a 25 μl PCR reaction using JumpStart SYBR green kit (Sigma) according to manufacturer's instructions in an ABI 7700. The reactions were performed in duplicate, CT values obtained were normalized to GAPDH levels and quantification was performed using the comparative CT method.

Regarding `Nc1ncn([C@H]2C[C@H](O)[C@@H](CO)O2)c(=O)n1` [5AzadC, 5-Aza-2′-deoxycytidine], the “Upregulation of SYK” value in experiment [1] is recorded as greater than 2 fold. Also, in experiment [2], the “Re-expression of HOXB13” value is on record as “Re-expression of HOXB13 occurred”. Also, the “Increase of expression of 150 genes upon 5AzadC treatment” value in experiment [3] was “greater than 4 fold”. Besides, in experiment [4], the “Reversal of loss of expression of promoter-methylated candidate genes” value was “could be reversed in the majority of cases”. In addition, the “Demethylation of promoter region” value in experiment [5] is “Demethylation was also induced; also recorded: demethylation of the promoter region”.
